Source: patent US20060084704A1, “Methods and compositions for enhancing degradation of nuclear receptor transcription factors and uses thereof” (priority 2004, published 2006)
“And” between values parts separate entries of the source, which are not always exact repeats. Equal values may be shown once. “Also recorded” adds a separate entry of the source.

Columns and labels:
[1] = test system: acne vulgaris; assay: Topical treatment of acne in human volunteers; format: in vivo; details: for Recovery Time: topical cream, per subject
Method: In this example, human subjects were successfully treated for acne by topical administration of a cream containing the compound JC15 or JC9, which were shown in the previous examples to ameliorate the effects of the androgen receptor-activated pathway, specifically by inducing degradation of the androgen receptor. A basic carrier formulation was prepared by mixing two solutions: (1) a water-based solution containing aristoflex avc, Osmocide, Tween 20, and water; and (2) an oil-based solution containing isopropyl myristate, coconut dienthanolamine, ethylparaben, isobutylparaben, methylparaben, and propylparaben. The test compounds (JC15 or JC9) were added to the cream to a final concentration of 1 to 2.5 micromolar, as needed.
Male and female human volunteers ranging in age from 15 years to 52 years were treated by topical application of the test compounds to the acne-affected skin. […] The results are given in Table 1, and a representative result (photo pictures) from one volunteer is depicted in FIG. 7.

[2] = test system: sebaceous glands; assay: Reduction of sebaceous glands in Fuzzy rats by topical cream; format: in vivo; details: once daily; for size of the sebaceous glandular lobe and duct: male Fuzzy rats, 8 weeks
Source text: In this example, the test compounds JC15 and JC9, which were shown in the previous examples to ameliorate the effects of the androgen receptor-activated pathway, specifically by inducing degradation of the androgen receptor, and to be effective in treating acne in human subjects, were used to reduce sebaceous glandular lobe size in an animal model. Effective reduction of sebaceous glands by topical treatment may be useful in treating skin conditions such as acne. Fuzzy rats were used in this animal model as described in Ye et al. (1997) Skin Pharmacol., 10:10288-10297, which is incorporated by reference in its entirety herein.
Topical creams were prepared as described in EXAMPLE 6. The test creams contained JC9 ([…]) or JC15 (1 micromolar); a control cream with only vehicle added was also prepared. The test or control creams were applied using a cotton swab to the dorsal skin of the animal, once daily, over a period of 8 weeks. Animals were then sacrificed and skin samples collected for microscopic examination. Commercial hair remover was applied to the dorsal surface of the euthanized animals. After 5 minutes, the hair remover and hairs were removed with a tissue. The area was thoroughly cleaned with 75% isopropyl alcohol. A 4-millimeter skin punch was used to remove skin tissue samples, which were incubated for 2 to 3 hours in a ethylenediaminetetraacetate (EDTA, 17 millimolar), sodium phosphate (0.1 molar, pH 7.4) solution at 37 degrees Celsius. The epidermis was carefully separated from the dermis and stored in 10% phosphate-buffered formalin. Prior to microscopic examination, the samples were mounted on glass slides. Areas of well-preserved glandular lobules were selected for microscopic imaging. Edges of the glandular lobes were traced and the areas of the traced lobes obtained with Image J software (National Institutes of Health).

[3] = target: T1, PPAR beta (Homo sapiens, UniProt Q03181); assay: Western blot of LNCaP cell lysates, PPAR beta; format: cell-based; details: 1 or 2 micromolar, 24 hours, presence or absence of DHT
T1 construct: endogenous in cells; host or cells: LNCaP
T1 sequence (Q03181 1-441): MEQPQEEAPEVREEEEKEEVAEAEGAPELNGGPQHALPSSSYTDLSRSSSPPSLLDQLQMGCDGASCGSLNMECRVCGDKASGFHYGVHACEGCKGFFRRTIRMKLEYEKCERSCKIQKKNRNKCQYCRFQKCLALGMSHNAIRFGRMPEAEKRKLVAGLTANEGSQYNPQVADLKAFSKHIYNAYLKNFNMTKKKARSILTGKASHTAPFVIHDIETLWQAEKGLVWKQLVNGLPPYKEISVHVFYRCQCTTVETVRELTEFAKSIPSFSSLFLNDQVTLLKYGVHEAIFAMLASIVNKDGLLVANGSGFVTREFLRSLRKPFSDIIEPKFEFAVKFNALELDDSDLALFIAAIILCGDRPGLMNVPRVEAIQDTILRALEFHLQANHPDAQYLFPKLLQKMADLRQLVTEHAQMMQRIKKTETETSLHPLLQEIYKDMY
Method: Human prostate cancer LNCaP cells and T47D cells were plated at a density of 7×10^5 cells per 60 millimeter tissue culture dish in […] (RPMI) medium containing 10% FBS. The medium was changed to RPMI or DME medium containing 10% charcoal-stripped serum 24 hours later to deplete cellular androgens or estrogens. After another 24 hours, treatment with the test compounds began. The test dose of JC15 was 1 or 2 micromolar and the test does of JC9 was 1, 5 and 10 micromolar. LNCap cells also received dihydrotestosterone (DHT) (3 nanomolar). Control cells received a corresponding amount of the vehicle, dimethylsulfoxide (DMSO) (<0.04%) for an equivalent exposure time. Cells were incubated with JC15 for 24 or 48 hours, and were lysed in 250 microliters of 1×SDS/PAGE loading buffer. Approximately 40 micrograms of total cellular protein was loaded in each lane of a pre-cast gel (NuPAGE, Invitrogen). Protein separation and transfer were performed following the manufacturer's instructions.
For the prostate cell lysates, androgen receptor (AR) protein was visualized by incubating the resultant membranes with an anti-AR antibody (BD-PharMingen), followed by chemiluminescence detection (ECL Plus, Amersham). […] The resultant protein signals were quantified using densitometry and NIH ImageJ software.

Structure (SMILES)	Recovery Time ([1]; 1 micromolar, four times a day)	Recovery Time ([1]; 1 micromolar, twice a day)	Recovery Time ([1]; 2.5 micromolar, twice a day)	time within which bands of sebaceous glands were reduced ([2]; JC9 25 micromolar cream, topical)	size of the sebaceous glandular lobe and duct ([2]; JC9 25 micromolar cream)	cellular concentration of PPAR beta [3]	skin condition of forehead (photographs) ([1]; JC15 1 micromolar in carrier base, acne-affected volunteer, one month topical treatment)	Recovery Time ([1]; 1 micromolar, as often as needed, listed as ASCJ15)	Recovery Time ([1]; 1 micromolar, twice a day, listed as ASCJ15)	size of the sebaceous glandular lobe and duct ([2]; JC15 1 micromolar cream)
COc1ccc(C=CC(=O)C=C(O)C=Cc2ccc(OC)c(OC)c2)cc1OC [JC9, 5-hydroxy-1,7-bis(3,4-dimethoxyphenyl)-1,4,6-heptatrien-3-one]	1 week	2 weeks	1 week	4-5 weeks	reduction in the size of the sebaceous glandular lobe and duct; also recorded: significantly reduced the size of lobe and ducts of sebaceous glands	–	–	–	–	–
CCOC(=O)CCC(C(=O)C=Cc1ccc(O)c(OC)c1)C(=O)C=Cc1ccc(O)c(OC)c1 (stereo not shown) [JC15, 7-(4-hydroxy-3-methoxyphenyl)-4-[3-(4-hydroxy-3-methoxyphenyl)acryloyl]-5-oxo-hept-6-enoic acid ethyl ester]	–	–	–	–	–	did not substantially affect	visible improvement to skin condition	1 week weeks (2×) and 2 weeks	2 weeks (2×) and 1 week weeks	reduction in the size of the sebaceous glandular lobe and duct; also recorded: approximately equivalent to the decrease caused by castration
